# Where two headings read alike, the source gives them in different places.
# B1: CSF-1: colony stimulating factor-1, an ERK activating agent identified by the screening method (protein, UniProt P09603 33-554, looked up)
# Macrophage colony-stimulating …: EEVSEYCSHMIGSGHLQSLQRLIDSQMETSCQITFEFVDQEQLKDPVCYLKKAFLLVQDIMEDTMRFRDNTPNAIAIVQLQELSLRLKSCFTKDYEEHDKACVRTFYETPLQLLEKVKNVFNETKNLLDKDWNIFSKNCNNSFAECSSQDVVTKPDCNCLYPKAIPSSDPASVSPHQPLAPSMAPVAGLTWEDSEGTEGSSLLPGEQPLHTVDPGSAKQRPPRSTCQSFEPPETPVVKDSTIGGSPQPRPSVGAFNPGMEDILDSAMGTNWVPEEASGEASEIPVPQGTELSPSRPGGGSMQTEPARPSNFLSASSPLPASAKGQQPADVTGTALPRVGPVRPTGQDWNHTPQKTDHPSALLRDPPEPGSPRISSLRPQGLSNPSTLSAQPQLSRSHSSGSVLPLGELEGRRSTRDRRSPAEPEGGPASEGAARPLPRFNSVPLTDTGHERQSEGSFSPQLQESVFHLLVPSVILVLLAVGGLLFYRWRRRSHQEPQRADSPLEQPEGSPLTQDDRQVELPV
# Experiments:
# [1] = system: bone marrow derived macrophages (BMMφ); experiment: Cytokine ELISA on supernatants of stimulated bone marrow derived macrophages (LPS ± E-IgG)
# ERK1/2 = experiment: Western blot of ERK activation (phospho-ERK) in macrophages; assay type: cell-based, mice; settings: macrophages stimulated with LPS 10 ng/ml plus the agent, versus LPS alone
# Procedure: FIG. 1 is a Western blot showing the kinetics of MAPK activation in bone marrow derived macrophages (BMMφ) stimulated with (LPS) alone or LPS in combination with E-IgG, an immune complex that ligates the FcγR. BMMφ were stimulated with LPS (10 ng/ml)±E-IgG. Cells were then lysed at the indicated times and equal amounts of whole cell lysates were separated by SDS PAGE and analyzed by Western blotting using phospho-specific Abs to ERK1/2, p38 or JNK. Total ERK1/2 (bottom panel) was used as the loading control.
# Western blots. 2×10^6 BMMφper well were plated overnight in 60 mm culture dishes. […]
# Cells were lysed at various indicated times and ERK activation was measured by Western Blot using antibodies to phosphorylated ERK (FIG. 9B).
# ERK activation was analyzed at the indicated times by Western Blot, using antibodies to phosphorylated ERK.
# IL-10 promoter = experiment: ChIP of histone H3 phosphorylation at the IL-10 promoter in stimulated BMMφ; assay type: cell-based, mice; settings: BMMφ pretreated 30 min with PD98059 10 μM or SB203580 1 μM, then IgG-OVA + LPS for 40 min
# Procedure: BMMφ were stimulated with medium (open bars), LPS (solid bars) or E-IgG+LPS (striped bars) for 15 minutes (A), or the indicated times (B) and ChIP assays were carried out as described in Materials and Methods. Immunoprecipitations utilized antibodies specific to phospho-H3 (left panel) or acetyl-H3 (right panel). A. conventional RT-PCR and B. real time PCR were carried out using IL-10 promoter or IL-12p40 promoter specific primers. For real time PCR, samples were normalized to input DNA controls.
# Cells were pretreated with PD98059 (10 μM), SB203580 (1 μM) or medium for 30 min then stimulated with medium (open bar), IgG-OVA (dotted bar), LPS (solid bar), or both (striped bars) for 40 min. ChIP analysis was carried out using a phospho-H3 specific Ab. A. Conventional RT-PCR was carried out using IL-10 promoter or IL-12p40 promoter specific primers. B. Real time PCR analysis of samples obtained in A. Samples were normalized to input DNA controls.
# FIG. 22 is a graph showing Inhibition of histone modifications by blocking ERK. BMMφ were pre-treated with PD98059 (15 μM) (solid bars) or drug vehicle (open bars) for 1 hour and then stimulated with IC plus LPS (10 ng/mL). Cross-linked chromatin fragments were immunoprecipitated with antibody to phosphorylated histone H3 at Ser 10 or antibody to Sp1. The DNA was purified and analyzed for the presence of IL-10 promoter sequences corresponding to nucleosome −2 by QRT-PCR. The data were plotted graphically as the percentage change relative to drug vehicle (IC/LPS) at 30 min post-stimulation for histone H3 phosphorylation, and at 45 min post-stimulation for Sp1 recruitment. One representative from two independent experiments is presented.
# Chromatin immunoprecipitation (ChIP). ChIPs were carried out using the ChIP Assay kit following the manufacturer's protocol (Upstate USA, Inc., Lake Placid, N.Y.). Briefly, 1×10^6 BMMφ were plated overnight in 6-well plates. Cells were stimulated as described in Figure Legends then fixed for 10 min at 37° C. in paraformaldehyde (1% final concentration). […]
# BMMφ = experiment: Cytokine ELISA (IL-10, IL-12) after HDAC inhibitor treatment of BMMφ stimulated with LPS+IC; assay type: cell-based, mice; settings: TSA added to BMMφ for 1 hr, washed, then 10 ng/ml LPS+IC for 6 hrs
# Procedure: FIG. 21 is a graph showing cytokine production following histone deacetylation. TSA was added to BMMφ for 1 hr and the cells were then washed with warmed medium before stimulation with 10 ng/ml LPS+IC. After LPS+IC stimulation for 6 hrs, the supernatants were collected and IL-10 and IL-12 were measured by ELISA. Results shown are one representative from two independent experiments conducted in triplicate (mean±SD).
# To further examine histone acetylation, macrophages were treated with increasing doses of the HDAC inhibitor, TSA, prior to stimulation. IL-10 levels were measured 6 hrs later. […] This observation is consistent with the hypothesis that an increase in histone H3 acetylation was not a pre-requisite for IL-10 gene transcription following stimulation by LPS+IC.
molecule,measurement,setting,value
"CCCCCCCCCCCCCC(=O)O[C@@H]1[C@@H](C)[C@@]2(O)[C@@H](C=C(CO)C[C@]3(O)C(=O)C(C)=C[C@@H]23)[C@@H]2C(C)(C)[C@]12OC(C)=O [PMA, phorbol 12-myristate 13-acetate]",IL-10 production (ELISA) of LPS-stimulated macrophages in presence of the ERK activator,[1],induced
same,"ERK activation (phosphorylated ERK, Western blot)",ERK1/2,activated
C[S+]([O-])c1ccc(-c2nc(-c3ccncc3)c(-c3ccc(F)cc3)[nH]2)cc1 (centres unmarked) [SB203580],histone H3 phosphorylation at the IL-10 promoter induced by immune complex (ChIP),IL-10 promoter,"decreasing it substantially, but not reducing it to background levels"
same,IL-10 secretion (ELISA),"[1]; BMMφ pretreated 30 min with PD98059 10 μM, SB203580 1 μM or JNK inhibitory peptide 1 μM, then LPS 10 ng/ml ± E-IgG, supernatants after 20 h",substantial inhibition
same,IL-12 (p40) production (ELISA),"[1]; BMMφ pretreated 30 min with inhibitor, then LPS 10 ng/ml ± E-IgG, 20 h",Neither of these inhibitors decreased
same,LPS-induced IL-10 production,"[1]; BMMφ, LPS 10 ng/ml alone, 20 h, inhibitor pretreatment or 100 nM siRNA",prevented
"CC(/C=C/C(=O)NO)=C\[C@@H](C)C(=O)c1ccc(N(C)C)cc1 [TSA, Trichostatin A]",IL-10 production (ELISA),BMMφ,failed to influence
same,IL-12 production (ELISA),BMMφ,substantially inhibit
B1,IL-10 production (ELISA) of LPS-stimulated macrophages in presence of the ERK activator,"[1]; LPS plus agent versus LPS alone, CSF-1 100 ng/ml added simultaneously with LPS, IL-10 measured 20 hrs later",induce more IL-10
same,IL-10 induction by the agent on its own,[1]; macrophages without inflammatory stimulus,does not induce IL-10 on its own
same,"ERK activation (phosphorylated ERK, Western blot)",ERK1/2,activated
